Columns and labels:
[1] = pharmacological activity in experiments on isolated organs and on intact animals (overall)
Procedure: (§1) The pharmacological activity of said compounds has been tested in various experiments in isolated organs and on intact narcotized and non-narcotizedanimals. The tests were aimed at establishing and quantitatively determining antihistaminic, antiserotonin, cholinolytic, and also broncholytic activity of the preparations. Moreover, the action of the preparations on increased permeability of the vessels, their antiexudative, antiallergic action were tested on guinea pigs, actively sensitized with ovalbumin with the administration of the antigen in the form of aerosol in effective doses. The effect of the preparations on the central nervous system, namely on the spontaneous motor activity, and also the interaction of the preparations with hypnotic and stimulating preparations, was tested.

[2] = test system: serotonin; details: 30 mg/kg in the stomach; serotonin aerosol
[3] = test system: serotonin and histamine; experiment: time course of action on bronchoconstriction by serotonin and histamine (Koncett-Rossler method); type: in vivo, guinea pigs; details: after intravenous injection
Description: The broncheal muscle tone was examined in intact narcotized guinea pigs by the Koncett-Rossler method.

[4] = test system: ovalbumin; experiment: anaphylactic reaction of guinea pigs sensitized with ovalbumin, aerosol of ovalbumin; type: in vivo; details: 30 mg/kg in the stomach
Procedure: as §1

[5] = test system: histamine; experiment: antihistaminic and antiallergic activity compared with known preparations; details: for certain experimental antihistaminic and antiallergic activity relative to known preparations: compared with dimedrol and diprasin-pipolfen
[6] = toxicity (LD50) on various laboratory animals; type: in vivo
Procedure: The toxicity (LD50) of the preparations was determined with various methods of administration (intravenous, subcutaneous, in the stomach) on various laboratory animals.

[7] = test system: serotonin; details: known antagonist; cited from earlier work

OC(c1cccs1)(c1cccs1)C1CN2CCC1CC2 (centres unmarked) [(quinuclidyl-3 )-di(thienyl- 2')-carbinol]
pharmacological activity [1]: high activity

OC(c1ccccc1)(C1CCCCC1)C1CN2CCC1CC2 (centres unmarked) [(phenyl)-(cyclohexyl)-(quinuclidyl- 3) -carbinol]
pharmacological activity [1]: high activity

CN(C)CCOC(c1ccccc1)c1ccccc1 [Dimedrol]
persistence of the antiserotonin action [2]: 4 to 6 h | onset of effect [3]: immediately

COc1ccccc1C(O)(c1ccccc1OC)C1CN2CCC1CC2 (centres unmarked) [(quinuclidyl-3)-di(2'-methoxyphenyl)carbinol]
protection from anaphylactic reaction [4]: actively protects | certain experimental antihistaminic and antiallergic activity relative to known preparations [5]: superior

OC(c1ccccc1)(c1cccs1)C1CN2CCC1CC2 (centres unmarked) [(phenyl)-(thienyl- 2')-(quinuclidyl- 3)carbinol]
pharmacological activity [1]: high activity

OC(c1ccccc1)(c1ccccc1)C1CN2CCC1CC2 (centres unmarked) [(quinuclidyl-3)-diphenylcarbinol]
times less toxic than dimedrol ([6]; given in the stomach): 1.5 times | times less toxic than dimedrol ([6]; given intravenously): 1.5 times | pharmacological activity [1]: high activity | antihistaminic activity [5]: high antihistaminic activity | certain experimental antihistaminic and antiallergic activity relative to known preparations [5]: superior

CCN(CC)C(=O)[C@@H]1C=C2c3cccc4[nH]cc(c34)C[C@H]2N(C)C1 [LSD-25, diethylamide lysergic acid]
activity as antagonist to serotonin [7]: one of the most active known antogonists to serotonin | onset of effect [3]: immediately

Reference: US4038402A, “Method of effecting antihistaminic, antiserotonin and antiallergic actions” (priority 1974, dated 1977)
